Experimental data taken from PMC12102759 (Protein Science : A Publication of the Protein Society, 2025).
Like-named read-outs stand apart in the source and are kept apart here.

Tested on: G3BP1 NFT2
Assay type: binding, human
Settings: library DMS-CoV, bait G3BP1 NFT2, prey N, listed as aa = residue placed at this position, column sums to 1

Sequence: APRITFGGPSDSTGSN S10Y (APRITFGGPYDSTGSN)
- DMS PSSM value, S (position 10) (peptide APRITFGGPSDSTGSN): 0.2277

Sequence: APRITFGGPSDSTGSN S12E (APRITFGGPSDETGSN)
- DMS PSSM value, S (position 12) (peptide APRITFGGPSDSTGSN): 0.0009188

Sequence: RNAPRITFGGPSDSTG P11H (RNAPRITFGGHSDSTG)
- DMS PSSM value, P (position 11) (peptide RNAPRITFGGPSDSTG): 0

Sequence: APRITFGGPSDSTGSN P9T (APRITFGGTSDSTGSN)
- DMS PSSM value, P (position 9) (peptide APRITFGGPSDSTGSN): 0.01557

Sequence: RNAPRITFGGPSDSTG D13S (RNAPRITFGGPSSSTG)
- DMS PSSM value, D (position 13) (peptide RNAPRITFGGPSDSTG): 0

Sequence: APRITFGGPSDSTGSN D11F (APRITFGGPSFSTGSN)
- DMS PSSM value, D (position 11) (peptide APRITFGGPSDSTGSN): 0.001494

Sequence: APRITFGGPSDSTGSN G14A (APRITFGGPSDSTASN)
- DMS PSSM value, G (position 14) (peptide APRITFGGPSDSTGSN): 0.007074

Sequence: RNAPRITFGGPSDSTG G9V (RNAPRITFVGPSDSTG)
- DMS PSSM value, G (position 9) (peptide RNAPRITFGGPSDSTG): 0

Sequence: APRITFGGPSDSTGSN D11T (APRITFGGPSTSTGSN)
- DMS PSSM value, D (position 11) (peptide APRITFGGPSDSTGSN): 0.104

Sequence: APRITFGGPSDSTGSN S15K (APRITFGGPSDSTGKN)
- DMS PSSM value, S (position 15) (peptide APRITFGGPSDSTGSN): 0.0001786

Sequence: APRITFGGPSDSTGSN R3T (APTITFGGPSDSTGSN)
- DMS PSSM value, R (position 3) (peptide APRITFGGPSDSTGSN): 0.001362

Sequence: RNAPRITFGGPSDSTG T7Q (RNAPRIQFGGPSDSTG)
- DMS PSSM value, T (position 7) (peptide RNAPRITFGGPSDSTG): 0

Sequence: RNAPRITFGGPSDSTG A3S (RNSPRITFGGPSDSTG)
- DMS PSSM value, A (position 3) (peptide RNAPRITFGGPSDSTG): 0

Sequence: RNAPRITFGGPSDSTG G9F (RNAPRITFFGPSDSTG)
- DMS PSSM value, G (position 9) (peptide RNAPRITFGGPSDSTG): 0

Sequence: APRITFGGPSDSTGSN I4A (APRATFGGPSDSTGSN)
- DMS PSSM value, I (position 4) (peptide APRITFGGPSDSTGSN): 0

Sequence: APRITFGGPSDSTGSN T13N (APRITFGGPSDSNGSN)
- DMS PSSM value, T (position 13) (peptide APRITFGGPSDSTGSN): 0.01901

Sequence: APRITFGGPSDSTGSN G8S (APRITFGSPSDSTGSN)
- DMS PSSM value, G (position 8) (peptide APRITFGGPSDSTGSN): 0.005734

Sequence: APRITFGGPSDSTGSN A1V (VPRITFGGPSDSTGSN)
- DMS PSSM value, A (position 1) (peptide APRITFGGPSDSTGSN): 0.004383

Sequence: RNAPRITFGGPSDSTG G16W (RNAPRITFGGPSDSTW)
- DMS PSSM value, G (position 16) (peptide RNAPRITFGGPSDSTG): 0

Sequence: RNAPRITFGGPSDSTG R5K (RNAPKITFGGPSDSTG)
- DMS PSSM value, R (position 5) (peptide RNAPRITFGGPSDSTG): 0.0001577

Sequence: APRITFGGPSDSTGSN T13K (APRITFGGPSDSKGSN)
- DMS PSSM value, T (position 13) (peptide APRITFGGPSDSTGSN): 0

Sequence: RNAPRITFGGPSDSTG A3P (RNPPRITFGGPSDSTG)
- DMS PSSM value, A (position 3) (peptide RNAPRITFGGPSDSTG): 0

Sequence: RNAPRITFGGPSDSTG G16N (RNAPRITFGGPSDSTN)
- DMS PSSM value, G (position 16) (peptide RNAPRITFGGPSDSTG): 1

Sequence: APRITFGGPSDSTGSN S10V (APRITFGGPVDSTGSN)
- DMS PSSM value, S (position 10) (peptide APRITFGGPSDSTGSN): 0.01109

Sequence: APRITFGGPSDSTGSN P9D (APRITFGGDSDSTGSN)
- DMS PSSM value, P (position 9) (peptide APRITFGGPSDSTGSN): 0

Sequence: APRITFGGPSDSTGSN F6H (APRITHGGPSDSTGSN)
- DMS PSSM value, F (position 6) (peptide APRITFGGPSDSTGSN): 0

Sequence: RNAPRITFGGPSDSTG P4W (RNAWRITFGGPSDSTG)
- DMS PSSM value, P (position 4) (peptide RNAPRITFGGPSDSTG): 0

Sequence: APRITFGGPSDSTGSN I4F (APRFTFGGPSDSTGSN)
- DMS PSSM value, I (position 4) (peptide APRITFGGPSDSTGSN): 0

Sequence: RNAPRITFGGPSDSTG G9D (RNAPRITFDGPSDSTG)
- DMS PSSM value, G (position 9) (peptide RNAPRITFGGPSDSTG): 1

Sequence: APRITFGGPSDSTGSN T13A (APRITFGGPSDSAGSN)
- DMS PSSM value, T (position 13) (peptide APRITFGGPSDSTGSN): 0.02642

Sequence: RNAPRITFGGPSDSTG A3M (RNMPRITFGGPSDSTG)
- DMS PSSM value, A (position 3) (peptide RNAPRITFGGPSDSTG): 0

Sequence: RNAPRITFGGPSDSTG P11F (RNAPRITFGGFSDSTG)
- DMS PSSM value, P (position 11) (peptide RNAPRITFGGPSDSTG): 0

Sequence: RNAPRITFGGPSDSTG F8N (RNAPRITNGGPSDSTG)
- DMS PSSM value, F (position 8) (peptide RNAPRITFGGPSDSTG): 0

Sequence: APRITFGGPSDSTGSN P9I (APRITFGGISDSTGSN)
- DMS PSSM value, P (position 9) (peptide APRITFGGPSDSTGSN): 0.01105

Sequence: APRITFGGPSDSTGSN G7F (APRITFFGPSDSTGSN)
- DMS PSSM value, G (position 7) (peptide APRITFGGPSDSTGSN): 0

Sequence: RNAPRITFGGPSDSTG S12G (RNAPRITFGGPGDSTG)
- DMS PSSM value, S (position 12) (peptide RNAPRITFGGPSDSTG): 0

Sequence: RNAPRITFGGPSDSTG P4D (RNADRITFGGPSDSTG)
- DMS PSSM value, P (position 4) (peptide RNAPRITFGGPSDSTG): 0

Sequence: RNAPRITFGGPSDSTG S14I (RNAPRITFGGPSDITG)
- DMS PSSM value, S (position 14) (peptide RNAPRITFGGPSDSTG): 0

Sequence: APRITFGGPSDSTGSN P9A (APRITFGGASDSTGSN)
- DMS PSSM value, P (position 9) (peptide APRITFGGPSDSTGSN): 0.001999

Sequence: RNAPRITFGGPSDSTG A3H (RNHPRITFGGPSDSTG)
- DMS PSSM value, A (position 3) (peptide RNAPRITFGGPSDSTG): 0

Sequence: RNAPRITFGGPSDSTG P11E (RNAPRITFGGESDSTG)
- DMS PSSM value, P (position 11) (peptide RNAPRITFGGPSDSTG): 0

Sequence: RNAPRITFGGPSDSTG F8I (RNAPRITIGGPSDSTG)
- DMS PSSM value, F (position 8) (peptide RNAPRITFGGPSDSTG): 0

Sequence: APRITFGGPSDSTGSN G8F (APRITFGFPSDSTGSN)
- DMS PSSM value, G (position 8) (peptide APRITFGGPSDSTGSN): 0

Sequence: RNAPRITFGGPSDSTG A3E (RNEPRITFGGPSDSTG)
- DMS PSSM value, A (position 3) (peptide RNAPRITFGGPSDSTG): 0.2371

Sequence: RNAPRITFGGPSDSTG N2T (RTAPRITFGGPSDSTG)
- DMS PSSM value, N (position 2) (peptide RNAPRITFGGPSDSTG): 0

Sequence: APRITFGGPSDSTGSN
- DMS PSSM value, A (position 1) (peptide APRITFGGPSDSTGSN): 0.1536
- DMS PSSM value, D (position 11) (peptide APRITFGGPSDSTGSN): 0.2538
- DMS PSSM value, F (position 6) (peptide APRITFGGPSDSTGSN): 0.991
- DMS PSSM value, G (position 7) (peptide APRITFGGPSDSTGSN): 0.9101
- DMS PSSM value, G (position 8) (peptide APRITFGGPSDSTGSN): 0.05897
- DMS PSSM value, G (position 14) (peptide APRITFGGPSDSTGSN): 0.009135
- DMS PSSM value, I (position 4) (peptide APRITFGGPSDSTGSN): 0.9676
- DMS PSSM value, P (position 2) (peptide APRITFGGPSDSTGSN): 0.199
- DMS PSSM value, P (position 9) (peptide APRITFGGPSDSTGSN): 0.679
- DMS PSSM value, R (position 3) (peptide APRITFGGPSDSTGSN): 0.004269
- DMS PSSM value, S (position 10) (peptide APRITFGGPSDSTGSN): 0.07098
- DMS PSSM value, S (position 12) (peptide APRITFGGPSDSTGSN): 0.1222
- DMS PSSM value, S (position 15) (peptide APRITFGGPSDSTGSN): 0.03905
- DMS PSSM value, T (position 5) (peptide APRITFGGPSDSTGSN): 0.4961
- DMS PSSM value, T (position 13) (peptide APRITFGGPSDSTGSN): 0.03355

Sequence: RNAPRITFGGPSDSTG T15A (RNAPRITFGGPSDSAG)
- DMS PSSM value, T (position 15) (peptide RNAPRITFGGPSDSTG): 0

Sequence: RNAPRITFGGPSDSTG P11D (RNAPRITFGGDSDSTG)
- DMS PSSM value, P (position 11) (peptide RNAPRITFGGPSDSTG): 0

Sequence: APRITFGGPSDSTGSN G7E (APRITFEGPSDSTGSN)
- DMS PSSM value, G (position 7) (peptide APRITFGGPSDSTGSN): 0.08457
